In patent US8846658B2, “Oxazine derivatives and their use in the treatment of neurological disorders” (Novartis AG, priority 2009, dated 2014):
pIC50: −log10 of the molar value. Where a name gives a salt, the structure may show the parent alone.

assay: Test 4: Inhibition of cellular release of amyloid peptide 1-40; type: cell-based, Chinese hamster; details: Cricetulus griseus; Test 4, CHO cells transfected with APP, 24 hours with test compound, amyloid peptide 1-40 in supernatant; read-out: Bace IC50
Protocol: Test 4: Inhibition of Cellular Release of Amyloid Peptide 1-40
Chinese hamster ovary cells are transfected with the gene for amyloid precursor protein. The cells are plated at a density of 8000 cells/well into 96-well microtiter plates and cultivated for 24 hours in DMEM cell culture medium containing 10% FCS. The test compound is added to the cells at various concentrations, and the cells are cultivated for 24 hours in the presence of the test compound. The supernatants are collected, and the concentration of amyloid peptide 1-40 is determined using state of the art immunoassay techniques, for example sandwich ELISA, homogenous time-resolved fluorescence (HTRF) immunoassay, or electro-chemiluminescence immunoassay.

| SMILES | pIC50 |
| --- | --- |
| N#Cc1ccc(C(=O)Nc2ccc(F)c([C@]3(C(F)F)COCC(N)=N3)c2)nc1 [Example 112, 5-Cyano-pyridine-2-carboxylic acid [3-((R)-5-amino-3-difluoromethyl-3,6-dihydro-2H-[1,4]oxazin-3-yl)-4-fluoro-phenyl]-amide hydrochloride] | 8.15 |
| C[C@@]1(c2cccc(NC(=O)c3ccc(Br)cn3)c2)COCC(N)=N1 [Example 3, 5-Bromo-pyridine-2-carboxylic acid [3-((R)-5-amino-3-methyl-3,6-dihydro-2H-[1,4]oxazin-3-yl)-phenyl]-amide hydrochloride] | 7.77 |
| Cc1cc(Br)cnc1C(=O)Nc1ccc(F)c(C2(C)COCC(N)=N2)c1 (stereo not shown) [Example 64] | 8.40 |
| COc1cnc(C(=O)Nc2ccc(F)c([C@]3(C(F)F)COCC(N)=N3)c2)c(N)n1 [Example 175] | 8.40 |
| Cl.[2H]c1nc(C(=O)Nc2ccc(F)c([C@]3(C(F)F)COCC(N)=N3)c2)c(C([2H])([2H])[2H])c([2H])c1Br [Example 116, 5-Bromo-4,6-dideutero-3-trideuteromethyl-pyridine-2-carboxylic acid [3-((R)-5-amino-3-difluoromethyl-3,6-dihydro-2H-[1,4]oxazin-3-yl)-4-fluoro-phenyl]-amide hydrochloride] | 8.40 |
| CC#CCOc1cnc(C(=O)Nc2ccc(F)c([C@]3(C(F)F)COCC(N)=N3)c2)cn1 [Example 164] | 9.00 |
| [2H]c1nc(C(=O)Nc2ccc(F)c([C@]3(C(F)F)COCC(N)=N3)c2)c(C([2H])([2H])[2H])c([2H])c1C#N [Example 147, 5-Cyano-4,6-dideutero-3-trideuteromethyl-pyridine-2-carboxylic acid [3-((R)-5-amino-3-difluoromethyl-3,6-dihydro-2H-[1,4]oxazin-3-yl)-4-fluoro-phenyl]-amide] | 8.10 |
| Cc1cc(C#N)cnc1C(=O)Nc1ccc(F)c([C@]2(C(F)F)COCC(N)=N2)c1 [Example 144, 5-Cyano-3-methyl-pyridine-2-carboxylic acid [3-((R)-5-amino-3-difluoromethyl-3,6-dihydro-2H-[1,4]oxazin-3-yl)-4-fluoro-phenyl]-amide] | 8.22 |
| C[C@@]1(c2cc(NC(=O)c3ncc(Br)cn3)ccc2F)CO[C@@](C)(C(F)(F)F)C(N)=N1 [Example 71, 5-Bromo-pyrimidine-2-carboxylic acid [3-((3R,6R)-6-amino-3,6-dimethyl-6-trifluoromethyl-3,6-dihydro-2H-[1,4]oxazin-3-yl)-4-fluoro-phenyl]-amide hydrochloride] | 8.40 |
| NC1=NC(c2cc(NC(=O)c3ccc(Br)cn3)ccc2F)(C(F)(F)F)CCOC1 (stereo not shown) [Example 99, 5-Bromo-pyridine-2-carboxylic acid [3-(3-amino-5-trifluoromethyl-2,5,6,7-tetrahydro-[1,4]oxazepin-5-yl)-4-fluoro-phenyl]-amide hydrochloride] | 7.00 |
